Legend:
[1] = tested on: vascular endothelial cells; test: Monocrotaline exposure of three-dimensional cellular tissue containing hepatocytes, vascular endothelial cells and hepatic stellate cells; CD31 fluorescent immunostaining; assay type: cell-based; conditions: mixed three-cell-type three-dimensional tissue; exposure to various concentrations of monocrotaline; FIG. 1B
From the text: FIG. 1A is a schematic diagram illustrating the above experiment. […] Then, after exposure to various concentrations of monocrotaline, the three-dimensional cellular tissue was fixed and stained for CD31 by fluorescent immunostaining. CD31 is a marker for endothelial cells.
The upper row of FIG. 1B is a fluorescence microscopy image showing the results of immunostaining. The lower row of FIG. 1B is a skeletonized image obtained by processing the image in the upper row of FIG. 1B.

[2] = tested on: vascular endothelial cells; test: Comparative experiment: liver tissue of hepatocytes only and separate three-dimensional tissue of vascular endothelial cells and hepatic stellate cells in the same well, monocrotaline exposure; CD31 fluorescent immunostaining; assay type: cell-based; conditions: hepatocyte tissue and endothelial/stellate tissue separate, not in contact, various concentrations of monocrotaline, FIG. 2B
From the text: FIG. 2A is a schematic diagram illustrating a comparative experiment. […] Then, after exposure to various concentrations of monocrotaline, these tissues were fixed and stained for CD31 by fluorescent immunostaining.
FIG. 2B is a fluorescence microscopy image showing the results of immunostaining.

In the case of `C[C@H]1C(=O)O[C@@H]2CCN3CC=C(COC(=O)[C@](C)(O)[C@]1(C)O)[C@H]23` [monocrotaline], the “damage to the vascular endothelial cells of the blood vessels (CD31 immunostaining)” value [1] is reported as “damaged in a monocrotaline concentration-dependent manner” and the “damage to the vascular endothelial cells of the blood vessels (CD31 immunostaining)” value [2] is reported as “no damage to the vascular endothelial cells of the blood vessels was observed”.
